Reference: PMC10033419, “Blocking NS3–NS4B interaction inhibits dengue virus in non-human primates” (Nature, 2023)
Where “and” joins values, the source holds several entries; their conditions need not be identical. Identical values can stand only once.

Legend:
DENV-2 Sylvatic Malaysia = assay: DENV genotype panel RT-qPCR, Vero E6; assay type: cell-based; conditions: Dengue virus, DENV2, Vero C1008
Procedure: (§1) A total of 20 DENV strains, representing the available genotypes within the four DENV serotypes, were used in the in vitro genotype panel, from which 19 viruses were described previously in ref. [3] and one additional virus, DENV-1/45AZ5 (ref. [54]), was added.
(§2) A potential toxic effect on host cells was tested in parallel, while omitting virus infection, using the MTS/PMS method (Promega) for Vero cells, or by high-content imaging for C6/36 cells, as described previously. […] RT–qPCR data were analysed using the QuantStudio 12K Flex software (v.1.2.3) or SDS v.1.2 Applied Biosystems software. Inhibition values for antiviral molecules were plotted using KaleidaGraph plotting software (v.4.03, Synergy Software).

DENV-3 G2 Thailand = assay: DENV genotype panel RT-qPCR, Vero E6; assay type: cell-based; conditions: Dengue virus, DENV3, Vero C1008
Procedure: as §1, §2

DENV-2 American Trinidad = assay: DENV genotype panel RT-qPCR, Vero E6; assay type: cell-based; conditions: Dengue virus, DENV2, Vero C1008
Procedure: as §1, §2

[1] = test system: DENV-1 G5 France - Toulon; assay: DENV genotype panel RT-qPCR, Vero E6; assay type: cell-based; conditions: Dengue virus, DENV1, Vero C1008
Procedure: as §1, §2

DENV-1 G1 Djibouti = assay: DENV genotype panel RT-qPCR, Vero E6; assay type: cell-based; conditions: Dengue virus, DENV1, Vero C1008; mean ± SD
Procedure: as §1, §2

DENV-3 G3 Bolivia = assay: DENV genotype panel RT-qPCR, Vero E6; assay type: cell-based; conditions: Dengue virus, DENV3, Vero C1008
Procedure: as §1, §2

DENV-4 Sylvatic Malaysia = assay: DENV genotype panel RT-qPCR, Vero E6; assay type: cell-based; conditions: Dengue virus, DENV4, Vero C1008
Procedure: as §1, §2

DENV-4 G2a Malaysia = assay: DENV genotype panel RT-qPCR, Vero E6; assay type: cell-based; conditions: Dengue virus, DENV4, Vero C1008
Procedure: as §1, §2

DENV-4 G2b Brazil = assay: DENV genotype panel RT-qPCR, Vero E6; assay type: cell-based; conditions: Dengue virus, DENV4, Vero C1008
Procedure: as §1, §2

DENV-1 G4 Indonesia = assay: DENV genotype panel RT-qPCR, Vero E6; assay type: cell-based; conditions: Dengue virus, DENV1, Vero C1008
Procedure: as §1, §2

DENV-3 G1 Malaysia = assay: DENV genotype panel RT-qPCR, Vero E6; assay type: cell-based; conditions: Dengue virus, DENV3, Vero C1008
Procedure: as §1, §2

hCMV AD169 = assay: microbe, parasite or virus in culture; assay type: cell-based; conditions: Human betaherpesvirus 5, AD169, MRC5; MRC-5
panel of 20 DENV strains = assay: DENV genotype panel (20 strains) RT-qPCR, Vero E6; assay type: cell-based, DENV-1–4; conditions: Dengue virus, DENV4 / genotype 3, Vero C1008, read-out: mean EC50, range
Procedure: as §1, §2

JEV CNS769-Laos 2009 = assay: microbe, parasite or virus in culture; assay type: cell-based; conditions: Japanese encephalitis virus, Vero C1008
[2] = ATPLite cell viability assay; assay type: cell-based, African green monkey; conditions: African green monkey, Vero cells
Procedure: (§3) In parallel, the toxicity was measured using an ATPLite cell viability luminescence assay (PerkinElmer). The assays were performed in three different cell types (Vero, Huh-7 and THP-1/DC-SIGN) as described in ref. [3] to exclude cell-specific activity of the compound.

Vero cells = assay: ATPLite cell viability assay; assay type: cell-based, African green monkey; conditions: individual experiments, listed as 64281802-AAA
Procedure: as §3

SMILES: COc1cc(N[C@H](C(=O)c2c[nH]c3ccc(OC(F)(F)F)cc23)c2ccc(Cl)cc2OC)cc(S(C)(=O)=O)c1 [JNJ-1802]
- EC50 (DENV-2 Sylvatic Malaysia): 0.0634 ± 0.0022 nM
- EC90 (DENV-2 Sylvatic Malaysia): 0.265 ± 0.029 nM
- EC50 (DENV-3 G2 Thailand): 1.68 ± 0.24 nM
- EC90 (DENV-3 G2 Thailand): 5.8 ± 3 nM
- EC50 (DENV-2 American Trinidad): 0.063 ± 0.081 nM
- EC90 (DENV-2 American Trinidad): 0.162 ± 0.083 nM
- EC90 [1]: 1.02 ± 0.68 nM
- EC50 ([1]; one of three values below threshold): < 0.23 nM
- EC50 (DENV-1 G1 Djibouti): 0.207 ± 0.056 nM
- EC90 (DENV-1 G1 Djibouti): 0.83 ± 0.37 nM
- EC50 (DENV-3 G3 Bolivia): 0.9 ± 1.1 nM
- EC90 (DENV-3 G3 Bolivia): 6.71 ± 0.66 nM
- EC50 (DENV-4 Sylvatic Malaysia): 0.66 ± 0.42 nM
- EC90 (DENV-4 Sylvatic Malaysia): 1.6 ± 1.1 nM
- EC50 (DENV-4 G2a Malaysia): 0.82 ± 0.71 nM
- EC90 (DENV-4 G2a Malaysia): 2.1 ± 1.7 nM
- EC50 (DENV-4 G2b Brazil): 0.521 ± 0.08 nM
- EC90 (DENV-4 G2b Brazil): 1.54 ± 0.15 nM
- EC90 (DENV-1 G4 Indonesia): 0.8 ± 0.31 nM
- EC50 (DENV-1 G4 Indonesia; two of four values below threshold): < 0.19 nM
- EC50 (DENV-3 G1 Malaysia): 1.28 ± 0.46 nM
- EC90 (DENV-3 G1 Malaysia): 3.6 ± 1.9 nM
- EC50 (hCMV AD169): 9000 nM
- EC50 (panel of 20 DENV strains): 0.04 to 1.8 nM
- EC50 (JEV CNS769-Laos 2009): 590 nM
- CC50 at 4 d ([2]; TOX d4 preseeding, individual experiments): 3040 nM
- CC50 ([2]; Vero): 2610 ± 470 nM
- CC50 ([2]; Vero with 50% HS): > 1500 nM
- CC50 (Vero cells; Vero cells in presence of 50% HS): > 2500 nM
- CC50 (Vero cells; Vero cells, TOX d4 preseeding): 3080 nM and 2400 nM and 2780 nM and 3520 nM and 2200 nM and 2320 nM and 2270 nM and 2310 nM and 2180 nM
